{
  "source": "patent US6503943B1",
  "about": "“Platinum complex, its preparation and therapeutic application” (priority 1998, dated 2003)",
  "key": {"[1]": {"test_system": "mammal adenocarcinoma MC2111", "test": "Antitumor effect at animals with solid form of mammal adenocarcinoma MC2111 (Example 9)", "assay_type": "in vivo, mice DBA1", "conditions": "for Tumor mass (%) of control / Tumor mass, Arithm. mean: 5th day, tumor size 14th day, mass from regression"}, "[2]": {"test_system": "leucaemia L1210", "test": "Antitumor effect at animals with leucaemia L1210, intermitent administration 3x (Example 5)", "assay_type": "in vivo, mice DBA2", "conditions": "1st, 5th and 9th day"}, "[3]": {"test_system": "leucaemia L1210", "test": "Antitumor effect at animals with leucaemia L1210, single administration (Example 4)", "assay_type": "in vivo, mice DBA2", "conditions": "for Survival (in % of control) / Survival time, Geom. mean: 1st day"}, "[4]": {"test_system": "ascitic form of Ehrlich tumor (ATE)", "test": "Antitumor effect at animals with ascitic form of Ehrlich tumor (ATE) (Example 10)", "assay_type": "in vivo, mice ICR", "conditions": "for Survival (in % of control) / Survival time, Geom. mean / Tumor mass (%) of control / Tumor mass, Arithm. mean: 1st day; for Tumor mass (%) of control / Tumor mass, Arithm. mean: dissection 10th day"}, "[5]": {"test_system": "leucaemia L1210", "test": "Antitumor effect at animals with leucaemia L1210, continual regimen (Example 7)", "assay_type": "in vivo, mice DBA2"}, "[6]": {"test_system": "Gardner lymphosarcoma", "test": "Antitumor effect at animals with solid form of Gardner lymphosarcoma (Example 8)", "assay_type": "in vivo, mice C3H", "conditions": "5th day, tumors weighed 14th day"}, "[7]": {"test_system": "ascitic form of Ehrlich tumor (ATE)", "test": "Antitumor effect at animals with ascitic form of Ehrlich tumor (ATE) (Example 11);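 on all read-outs here: half of each dose group killed on day 10, tumor mass taken as animal mass lost on ascites aspiration, ascitocrit by microhematocrit centrifuge, rest followed daily for survival versus reference group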", "conditions": "for Survival (in % of control) / Survival time, Geom. mean / Total ascitocrit (%) of control / Total ascitocrit (mass of cell fraction of a tumor), Arithm. mean / Tumor mass (%) of control / Tumor mass, Arithm. mean: 1st day; for Total ascitocrit (%) of control / Total ascitocrit (mass of cell fraction of a tumor), Arithm. mean / Tumor mass (%) of control / Tumor mass, Arithm. mean: dissection 10th day", "procedure": "After termination of application, one half of animals in each dosage group was destroyed at 10th day after inoculation in ether narcosis, the ascits were sucked out after laparotomy and the mass of a tumor at each of the animals was determined from the difference of mass before and after sucking out the ascit. Ascitocrit in ascitic liquor of single animals was determined on microhematocrit centrifuge in heparinized capillary tubes of 75 mm length. The value of “total ascitocrit”corresponding to a mass of cells in ascitic liquor has been determined from percentage of ascitocrit and mass of the tumor. Remaining animals were left for monitoring the survival time. In these animals, the survival time was monitored on daily basis. The dependence of the survival time value on the applied dose was evaluated in comparison with the reference group.\nThe single estimated time points as biological responses were evaluated by a test of equivalence of two mean values (Student's t-test). Geometric mean was calculated from single values of survival time, arithmetic means were calculated from single values of tumor mass and total ascitocrit. Difference between mean values was evaluated by a test of equivalence of two mean values (Student's t-test) under presumption of normal probability distribution of mass values as well as of total ascitocrit values and of logarithmic/normal distribution of temporal values, all under presumption of possible unknown disseminations. Those diferences in mean values, whose values of a test criterium exceeded the critical value at the 5% and 1% significance level were evaluated as statistically significant and highly statistically significant, respectively.\nThe optimum dosage has been calculated from values of survival time according to the proportional risk model of Cox (Carter et al., 1982). Parameters of Weinbull distribution and logarithmic transformation of introductory data were used for estimation of a basic and modified survival function from experimental data."}, "[8]": {"test_system": "leucaemia L1210", "test": "Antitumor effect at animals with leucaemia L1210, continual versus intermitent regimen (Example 6)", "assay_type": "in vivo, mice DBA2", "conditions": "for Survival (in % of control) / Survival time, Geom. mean: 1st day"}},
  "note": "Several values for one entry are separate records, joined by “and”; a condition that tells them apart may be missing. Equal values may be shown once.",
  "data": [
    {"smiles": "N.N.[Cl][Pt][Cl]", "note": "[Platidiam, cis-diammin-dichloroplatinum(II) complex]", "values": [
      {"measurement": "Tumor mass (%) of control", "setting": "[1]; 4 mg/kg s.c. 1x", "result": 76, "unit": "%"},
      {"measurement": "Tumor mass, Arithm. mean", "setting": "[1]; 4 mg/kg s.c. 1x", "result": 3.53, "unit": "g"},
      {"measurement": "Tumor mass (%) of control", "setting": "[1]; 8 mg/kg s.c. 1x", "result": 69, "unit": "%"},
      {"measurement": "Tumor mass, Arithm. mean", "setting": "[1]; 8 mg/kg s.c. 1x", "result": 3.20, "unit": "g"},
      {"measurement": "LTS - Long Term Survivors; the amount of animals destroyed at 120th day", "setting": "[1]; mouse, in vivo", "result": "1/10"},
      {"measurement": "Survival (in % of control)", "setting": "[1]; mouse, in vivo", "result": ">162 2) % and >158 1) %"},
      {"measurement": "Survival time, Geom. mean", "setting": "[1]; mouse, in vivo", "result": "35.1 days and 34.3 days"},
      {"measurement": "Evaluation of antitumor effect, in words", "setting": "[1]; p.o.×9 12, 6, 3 mg/kg/day, Platidiam 8 and 4 mg/kg s.c. once", "result": "antitumor effective"},
      {"measurement": "Survival (in % of control)", "setting": "[2]; 1 mg/kg/day s.c. 3x", "result": 178, "unit": "%"},
      {"measurement": "Survival time, Geom. mean", "setting": "[2]; 1 mg/kg/day s.c. 3x", "result": 28.0, "unit": "days"},
      {"measurement": "Survival (in % of control)", "setting": "[2]; 2 mg/kg/day s.c. 3x", "result": 168, "unit": "%"},
      {"measurement": "Survival time, Geom. mean", "setting": "[2]; 2 mg/kg/day s.c. 3x", "result": 26.3, "unit": "days"},
      {"measurement": "Survival (in % of control)", "setting": "[2]; 4 mg/kg/day s.c. 3x", "result": 106, "unit": "%"},
      {"measurement": "Survival time, Geom. mean", "setting": "[2]; 4 mg/kg/day s.c. 3x", "result": 16.6, "unit": "days"},
      {"measurement": "Survival (in % of control)", "setting": "[3]; 2.5 mg/kg s.c. 1x", "result": 112, "unit": "%"},
      {"measurement": "Survival time, Geom. mean", "setting": "[3]; 2.5 mg/kg s.c. 1x", "result": 14.2, "unit": "days"},
      {"measurement": "Survival (in % of control)", "setting": "[3]; 5 mg/kg s.c. 1x", "result": ">132", "unit": "%"},
      {"measurement": "Survival time, Geom. mean", "setting": "[3]; 5 mg/kg s.c. 1x", "result": 16.7, "unit": "days"},
      {"measurement": "Increase of mean value of survival time against the control", "setting": "[3]; 5 mg/kg s.c., single, not statistically significant", "result": 32, "unit": "%"},
      {"measurement": "Survival (in % of control)", "setting": "[3]; 10 mg/kg s.c. 1x", "result": 48, "unit": "%"},
      {"measurement": "Survival time, Geom. mean", "setting": "[3]; 10 mg/kg s.c. 1x", "result": 6.1, "unit": "days"},
      {"measurement": "Survival (in % of control)", "setting": "[4]; 2 mg/kg s.c. 1x", "result": 120, "unit": "%"},
      {"measurement": "Survival time, Geom. mean", "setting": "[4]; 2 mg/kg s.c. 1x", "result": 13.8, "unit": "days"},
      {"measurement": "Tumor mass (%) of control", "setting": "[4]; 2 mg/kg s.c. 1x", "result": 115, "unit": "%"},
      {"measurement": "Tumor mass, Arithm. mean", "setting": "[4]; 2 mg/kg s.c. 1x", "result": 3.06, "unit": "g"},
      {"measurement": "Survival (in % of control)", "setting": "[4]; 4 mg/kg s.c. 1x", "result": 190, "unit": "%"},
      {"measurement": "Survival time, Geom. mean", "setting": "[4]; 4 mg/kg s.c. 1x", "result": 21.8, "unit": "days"},
      {"measurement": "Tumor mass (%) of control", "setting": "[4]; 4 mg/kg s.c. 1x", "result": 101, "unit": "%"},
      {"measurement": "Tumor mass, Arithm. mean", "setting": "[4]; 4 mg/kg s.c. 1x", "result": 2.68, "unit": "g"},
      {"measurement": "Survival (in % of control)", "setting": "[4]; 8 mg/kg s.c. 1x", "result": 184, "unit": "%"},
      {"measurement": "Survival time, Geom. mean", "setting": "[4]; 8 mg/kg s.c. 1x", "result": 21.0, "unit": "days"},
      {"measurement": "Tumor mass (%) of control", "setting": "[4]; 8 mg/kg s.c. 1x", "result": 82, "unit": "%"},
      {"measurement": "Tumor mass, Arithm. mean", "setting": "[4]; 8 mg/kg s.c. 1x", "result": 2.16, "unit": "g"},
      {"measurement": "Significance of mean survival time increase in comparison with untreated control (p≦0.01), in words", "setting": "[4]; Tab. 7-2", "result": "atatistically highly significant"},
      {"measurement": "LTS - Long Term Survivors (amount of surviving animals in a group)", "setting": "[5]; 4 mg/kg s.c. 1x, 1st day", "result": "5/10"},
      {"measurement": "Survival (in % of control)", "setting": "[5]; 4 mg/kg s.c. 1x, 1st day", "result": ">223", "unit": "%"},
      {"measurement": "Survival time, Geom. mean", "setting": "[5]; 4 mg/kg s.c. 1x, 1st day", "result": 50.2, "unit": "days"},
      {"measurement": "Increase of survival time value in comparison with the control group", "setting": "[5]; 4 mg/kg s.c.×1", "result": 123, "unit": "%"},
      {"measurement": "Tumor mass (%) of control", "setting": "[6]; 2 mg/kg s.c. 1x", "result": 83, "unit": "%"},
      {"measurement": "Tumor mass, Arithm. mean", "setting": "[6]; 2 mg/kg s.c. 1x", "result": 5.19, "unit": "g"},
      {"measurement": "Tumor mass (%) of control", "setting": "[6]; 4 mg/kg s.c. 1x", "result": 59, "unit": "%"},
      {"measurement": "Tumor mass, Arithm. mean", "setting": "[6]; 4 mg/kg s.c. 1x", "result": 3.68, "unit": "g"},
      {"measurement": "Tumor mass (%) of control", "setting": "[6]; 8 mg/kg s.c. 1x", "result": 26, "unit": "%"},
      {"measurement": "Tumor mass, Arithm. mean", "setting": "[6]; 8 mg/kg s.c. 1x", "result": 1.64, "unit": "g"},
      {"measurement": "Survival (in % of control)", "setting": "[7]; 2 mg/kg s.c. 1x", "result": 128, "unit": "%"},
      {"measurement": "Survival time, Geom. mean", "setting": "[7]; 2 mg/kg s.c. 1x", "result": 11.4, "unit": "days"},
      {"measurement": "Total ascitocrit (%) of control", "setting": "[7]; 2 mg/kg s.c. 1x", "result": 115, "unit": "%"},
      {"measurement": "Total ascitocrit (mass of cell fraction of a tumor), Arithm. mean", "setting": "[7]; 2 mg/kg s.c. 1x", "result": 0.79, "unit": "g"},
      {"measurement": "Tumor mass (%) of control", "setting": "[7]; 2 mg/kg s.c. 1x", "result": 72, "unit": "%"},
      {"measurement": "Tumor mass, Arithm. mean", "setting": "[7]; 2 mg/kg s.c. 1x", "result": 2.83, "unit": "g"},
      {"measurement": "Survival (in % of control)", "setting": "[7]; 4 mg/kg s.c. 1x", "result": 197, "unit": "%"},
      {"measurement": "Survival time, Geom. mean", "setting": "[7]; 4 mg/kg s.c. 1x", "result": 17.5, "unit": "days"},
      {"measurement": "Total ascitocrit (%) of control", "setting": "[7]; 4 mg/kg s.c. 1x", "result": 116, "unit": "%"},
      {"measurement": "Total ascitocrit (mass of cell fraction of a tumor), Arithm. mean", "setting": "[7]; 4 mg/kg s.c. 1x", "result": 0.80, "unit": "g"},
      {"measurement": "Tumor mass (%) of control", "setting": "[7]; 4 mg/kg s.c. 1x", "result": 90, "unit": "%"},
      {"measurement": "Tumor mass, Arithm. mean", "setting": "[7]; 4 mg/kg s.c. 1x", "result": 3.53, "unit": "g"},
      {"measurement": "Survival (in % of control)", "setting": "[7]; 8 mg/kg s.c. 1x", "result": 208, "unit": "%"},
      {"measurement": "Survival time, Geom. mean", "setting": "[7]; 8 mg/kg s.c. 1x", "result": 18.5, "unit": "days"},
      {"measurement": "Total ascitocrit (%) of control", "setting": "[7]; 8 mg/kg s.c. 1x", "result": 100, "unit": "%"},
      {"measurement": "Total ascitocrit (mass of cell fraction of a tumor), Arithm. mean", "setting": "[7]; 8 mg/kg s.c. 1x", "result": 0.68, "unit": "g"},
      {"measurement": "Tumor mass (%) of control", "setting": "[7]; 8 mg/kg s.c. 1x", "result": 60, "unit": "%"},
      {"measurement": "Tumor mass, Arithm. mean", "setting": "[7]; 8 mg/kg s.c. 1x", "result": 2.36, "unit": "g"},
      {"measurement": "Evaluation of antitumor effect (survival time versus control), in words", "setting": "[7]; p.o.×9, Platidiam 8 and 4 mg/kg s.c.×1, Tab. 8.1", "result": "antitumor effective"},
      {"measurement": "Survival (in % of control)", "setting": "[8]; 2 mg/kg s.c. 1x", "result": 155, "unit": "%"},
      {"measurement": "Survival time, Geom. mean", "setting": "[8]; 2 mg/kg s.c. 1x", "result": 17.9, "unit": "days"},
      {"measurement": "Survival (in % of control)", "setting": "[8]; 4 mg/kg s.c. 1x", "result": 174, "unit": "%"},
      {"measurement": "Survival time, Geom. mean", "setting": "[8]; 4 mg/kg s.c. 1x", "result": 20.2, "unit": "days"},
      {"measurement": "Survival (in % of control)", "setting": "[8]; 8 mg/kg s.c. 1x", "result": 204, "unit": "%"},
      {"measurement": "Survival time, Geom. mean", "setting": "[8]; 8 mg/kg s.c. 1x", "result": 23.7, "unit": "days"},
      {"measurement": "Evaluation of antitumor effect (survival time versus control), in words", "setting": "[8]; LA-12 6 mg/kg p.o.×9, Platidiam 8 and 4 mg/kg s.c.×1, LA-2 any of the dosage groups", "result": "antitumor effective"}
    ]}
  ]
}
